Data on four compounds can be found in patent publication US20260258471A1, “SYSTEMS AND METHODS FOR MICROCOLONY GROWTH AND MICROBIAL CELL CHARACTERIZATION” (priority 2018, published 2026).

Values after ≈ are worked out from the molar mass of the structure shown.

Common to all, as to assay type: cell-based
The test system of assay [1] is Escherichia coli. As to the kind of experiment: LD-AST (local diffusion antimicrobial susceptibility testing) on annular-disk microwell strips. The method, then:
In one case, an LD-AST test strip was fabricated following the method of Examples 9A and 10, coating different concentrations of Norfloxacin on the annular disks in 0-16 μg range. Three types of strips were prepared: low volume agar type with 80 μL of gel per microwell, medium volume agar type with 150 μL of gel per microwell, and high-volume agar type with 350 μL of gel per microwell. The corresponding gel thickness was respectively 2 mm, 4 mm, and 9 mm. The annular disks were then placed on the gels. The images of the microwell strip, for the case of low volume agar type, is presented in FIGS. 23A and 23B, where 220, 221, 222, and 223 respectively, refer to the drug impregnated annular disc, the drug exposure region, the guiding ring, and the gel. 1 μL of Escherichia coli cell suspension, which had been prepared according to the method of Example 12, was dispensed into the ROI of each LD-AST unit. The strips were incubated at 37° C. and their ROI were imaged by an epi-illuminated microscope having a 5× objective once every hour. These images are presented in FIGS. 24A-24C (low volume gel), 25A-C (medium volume gel), and 26A-C (high volume gel) for incubation times of t=3hours, t=4hours and t=overnight, respectively.
The labels in FIGS. 24A-24C show the mass of the of the antimicrobial agent that was coated on the annular disk during preparation. […] Despite this time variation, an effective antimicrobial agent concentration may be associated with each microwell. This effective antimicrobial agent concentration may be estimated, for example, by modeling the diffusion of the antimicrobial agent, as in FIG. 21A, or, for example, by comparing the results of the LD-AST assay to a reference assay such as broth microdilution assay.
In the case of low volume gels (FIG. 24A-24C), since the antimicrobial agent is expected rapidly and efficiently diffuse throughout the volume of the solid phase growth medium, and since it is expected that the antimicrobial agent diffuses nearly completely from the annular disk, the effective antimicrobial agent concentration may be estimated by dividing the mass of the antimicrobial agent that was provided on the annular disk by the volume of the gel. […] Accordingly, the effective antimicrobial agent concentration for the case low-volume gels of FIGS. 24A-24C was estimated to be 0.25 times of the drug mass that was impregnated on the disk. For instance, the drug concentration at the drug exposure region of the annular disk loaded by 16 μg of Norfloxacin is 4 μg/mL.
Comparing FIGS. 24B and 24C, one can observe (or computationally determine) that for the LD-AST unit labeled by 0.5 μg (having an estimated effective concentration of 0.1 μg/ml), there appears to be a lack of visible growth between 3 and 4 hours of incubation. This halting in growth was verified by imaging the ROIs after overnight culture, as illustrated in FIG. 24C. As a result, the MIC value for this test was estimated as 0.1 μg/mL. […]
FIG. 25A-25C and 26A-26C, respectively, correspond to intermediate volume (gel volume of 150 μL in microwell) and high volume (gel volume of 350 μL in microwell) cases. In these cases, due to the larger temporal variation in concentration during incubation, an effective antimicrobial agent concentration may be determined by correlating the observed results with a reference microdilution assay. […]

Assay [2] has as its system Escherichia coli. As to the kind of experiment: conventional microdilution methodology (reference). The method, then:
(§1) Intermediate twofold dilutions of antimicrobial agents in broth (Tryptic soy, and in some cases Brain Heart Infusion). 100 μL of the antimicrobial agent/broth solutions were dispensed into each well of 96-well plates in triplicates. Then, to each well 10 μL of the 5×10^6 CFU/mL cell suspension, which was prepared according to the method of example 5, was added. The plate was sealed and placed in the incubator at 35-37° C. for 16-24 hours for MIC value to be determined.
On the technique in general: In broth dilution the organism is exposed to a series of concentrations in liquid medium.

The test system of assay [3] is Escherichia coli. Briefly: Vitek 2 (Biomerieux) reference AST.
Assay [4] concerns Methicillin-resistant Staphylococcus aureus (MRSA 111 with not strong resistance). As to the kind of experiment: thin strip type LD-AST on clean suspension and positive blood culture. The method, then: Methicillin-resistant Staphylococcus aureus (MRSA 111 with not strong resistance) was spiked into 10 mL of whole blood samples at the nominal concentration of 5-10 CFU/ml. Then, an FA Plus aerobic blood culture bottles were inoculated with 10 mL of spiked whole blood and incubated at 37° C. until the culture turns positive. At this time, 30 μL of glycerol stock of the bacterial cell was inoculated in 3 mL of TSB and incubated at 37° C. for 3 hr with shaking at 150 rpm. Based on OD measurements, serial dilutions of the respective bacteria were prepared in TSB at a nominal concentration of 10^5 CFU/mL. An aliquot of the positive blood sample was diluted in TSB by 1000-fold. The two samples were simultaneously tested for susceptibility against Oxacillin with “thin strip” type LD-AST. The results, which are presented in FIG. 30, indicate similar MIC value of 1 μg/mL.

In assay [5] the test system is S. aureus. As to the kind of experiment: antimicrobial dilution pipetted directly onto thin-type gel microwells (no annular disk). Particulars: Staphylococcus aureus; 20 μL of two-fold dilutions pipetted onto thin-type microwells; 37° C. until control colonies visible. How it is done:
In order to verify the observed difference between the MIC for the low-volume gel and the typical MIC values reported by EUCAST for S. aureus and Vancomycin was not caused by the geometry of the annular disk and its corresponding diffusion dynamics, the following experiment was performed. A two-fold serial dilution of the target antimicrobial agent was prepared in water. Then 20 μL of each dilution was pipetted onto the surface of “thin-type” microwells that were prepared according to the method of Example 10. After about 10 minutes, the antimicrobial agent solution had diffused into top of the gel. 1 μL of a microbial cell suspension was then added and together they were incubated at 37° C. until the microbial colonies at the control well (zero antimicrobial agent concentration) were visible. The MIC found in this manner was 3 μg/mL.

Assay [6] concerns Staphylococcus aureus. Briefly: broth microdilution AST according to Example 11. The method, then: as §1
Assay [7] has as its system Staphylococcus aureus. Briefly: Vitek 2 reference AST.
Assay [8] relates to Staphylococcus aureus. As to the kind of experiment: LD-AST on annular-disk microwell strips.
Description: In this case, the cell proliferation at the borderline LD-AST unit, such as the one labeled 12 μg, would be preferably determined by image processing. For example, time-lapse microscopic images can be acquired are aligned and difference images (obtained via subtraction of aligned images) may be processed to detect evidence of growth.
In order to further illustrate the insensitivity of the LD-AST to variations of the antimicrobial agent concentration at the ROIs during the first hour of the assay, the assay was performed in two different protocols; a first direct protocol involving immediate inoculation of the microbial cell suspension after contacting the annular disks with the solid phase growth medium, and a second delayed protocol in which the microbial cell suspension was inoculated 1 hour after contacting the annular disks with the solid phase growth medium.
Blank AST paper disks (Hardy Diagnostics, Z7121) that were 6.35 mm in diameter and 0.75 mm thick, were modified to include a 3 mm hole in the center.
Each paper disk has the capacity to absorb approximately 20 μL of liquid before being saturated. For each antibiotic, a two-fold serial dilution in water was made which included concentrations near its suspected MIC value. The disks were separated into individual wells of a 96-well microplate, and then 20 μL of each antibiotic dilution was pipetted over paper disks ensuring that the entire disk was evenly wetted. After incubation for about 20 minutes at room temperature, the disks in the microplate were dried in vacuum desiccator. Alternatively, individual disk separated in the microplate well could be soaked in an excess volume (30 to 50 μL) of the antibiotic dilution. After incubation, the excess fluid is removed by pipette and dried in a vacuum desiccator. The microplate was then covered with an adhesive cover and stored at 4° C.
Tryptic soy agar blood base (Hardy Diagnostics C5221) was prepared with 1% defibrinated sheep's blood according to the manufacturer. While the agar was still warm (45 to 50° C.), it was pipetted into the wells of an 12×8-well strip plate. For “Thin-gel” case, approximately 50 μL of agar was dispensed into an individual well to give a gel thickness of ~1 mm. For the “mid-thick gel” case, approximately 150 μL of agar was dispensed to gel a gel thickness of ~3 mm. Finally, for the “thick gel” case, approximately 350 μL of agar was dispensed to gel a gel thickness of ~7 mm. The agar gels were then cooled to room temperature to solidify, and then either used immediately or stored at 4° C. with an adhesive cover over the wells to prevent gel drying. […]
Assay [9] concerns Candida albicans (ATCC 90028). As to the kind of experiment: LD-AST against fungal cells. Particulars: thin strip LD-AST; images at 3 and 4 hours, verified overnight. The method, then: A series of LD-AST units having different levels of Amphotoricin B were prepared and tested against Candida albicans (ATCC 90028). […] Therefore, the MIC was determined to be 2 μg/mL. The conclusion of growth at the LD-AST unit corresponding to 1 μg/mL, though not easily noticed in FIG. 29 by visual inspection of t=3 and 4 incubation images, was verified by referring to the overnight incubation row in the figure.
To align imaging data acquired at different time points (2, 3, 4 and 5 hours after seeding), 2D-2D registration (only translation and rotation are permitted) with rigid transformation constrains was performed. The corresponding intensity feature points between the previous time point (tn-1 or tn-2) image, so-called reference, and each further image, so-called floating image, were automatically identified using the key-point detector SURF and used for aligning imaging date with respect to the reference data. Intensity features present at the reference image were classified as background while intensity features appearing on further images (cells/bugs) were classified as foreground. The position of given individual microcolonies have been marked in consecutive images. Setting the background allows enhanced detection of microcolonies and their growth.

With `CCn1cc(C(=O)O)c(=O)c2cc(F)c(N3CCNCC3)cc21` [Norfloxacin], the MIC in assay [1] (Escherichia coli, low volume gel strip, no growth between 3 and 4 hours of incubation, verified overnight, read-out: MIC value (estimated effective concentration)) was 0.1 µg/mL (≈ 0.313 µM); in [3] (Escherichia coli, read-out: MIC value reported by Vitek 2), ≤ 0.5 µg/mL. For the same compound, in assay [1] (LD-AST MIC, low volume gel), the “classification of MIC per CLSI/EUCAST interpretation standards” value was “S”. Further, the “antimicrobial mass label of the microwell at which microbial growth halts” value in assay [1] (high volume (gel volume of 350 μL in microwell)) and in assay [1] (intermediate volume (gel volume of 150 μL in microwell)) was 1 µg each time. Also, the “antimicrobial mass coated on annular disk of the LD-AST unit showing lack of visible growth” value in assay [1] (low volume gel, between 3 and 4 hours of incubation) was determined as 0.5 µg. In [2], this compound registered an MIC value of 0.1 µg/mL (≈ 0.313 µM). Further, the “susceptibility category reported by Vitek 2” value in [3] was “S”.

In turn, `Cc1onc(-c2ccccc2)c1C(=O)N[C@@H]1C(=O)N2[C@@H]1SC(C)(C)[C@@H]2C(=O)O` [Oxacillin] yielded an MIC in assay [4] (Staphylococcus aureus, MRSA, clean cell suspension in TSB, nominal 10^5 CFU/mL) of 1 µg/mL (≈ 2.49 µM). For the same compound, the MIC value in assay [4] (positive blood culture diluted in TSB by 1000-fold) turned out to be 1 µg/mL (≈ 2.49 µM).

For `CN[C@H](CC(C)C)C(=O)N[C@H]1C(=O)N[C@@H](CC(N)=O)C(=O)N[C@H]2C(=O)N[C@H]3C(=O)N[C@H](C(=O)N[C@H](C(=O)O)c4cc(O)cc(O)c4-c4cc3ccc4O)[C@H](O)c3ccc(c(Cl)c3)Oc3cc2cc(c3O[C@@H]2O[C@H](CO)[C@@H](O)[C@H](O)[C@H]2O[C@H]2C[C@](C)(N)[C@H](O)[C@H](C)O2)Oc2ccc(cc2Cl)[C@H]1O` [Vancomycin], the MIC in assay [5] worked out at 3 µg/mL (≈ 2.07 µM); in [6] (Staphylococcus aureus, broth microdilution, Example 11), 1.5 µg/mL (≈ 1.04 µM); in assay [7] (Staphylococcus aureus, read-out: MIC value from Vitek 2) it was 1 µg/mL (≈ 0.69 µM). Besides, the “classification of MIC according to CLSI” value in [6] (broth microdilution MIC) was “S”. Moreover, the “susceptibility category from Vitek 2” value in [7] is reported as “S”. For the same compound, the “classification of MIC per CLSI interpretation standards” value in assay [8] (LD-AST MIC, thin type) is on record as “I”. Moreover, the “MIC, direct protocol versus delayed (1 hour) inoculation protocol” value in assay [8] (mid-thick strip, 4 hours after inoculation (FIG. 28)) is “equal”. Also, the “growth at borderline LD-AST unit (difference image of time-lapse images)” value in [8] (mid-thick type, unit labeled 12 μg, verified by overnight incubation) is “continued to grow”. The MIC value in assay [8] (thin type LD-AST unit (FIG. 27A), 3 and 4 hours incubation) was 3 µg/mL (≈ 2.07 µM).

On to Amphotoricin B, for which, in [9], the MIC was 2 µg/mL.
